Test results as given in patent publication US7524853B2 (Solvay Pharmaceuticals B.V., priority 2003, dated 2009).

Legend:
Format in all cases: cell-based
[1] = molecular target: T1, 17β-hydroxysteroid dehydrogenase type 1 (17β-HSD type 1) (Homo sapiens, UniProt P14061); test: Inhibition of 17β-HSD type 1 in MCF-7 cells stably expressing the isoenzyme (tritium labeled estrone conversion, HPLC); details: MCF7, MCF-7 cells expressing 17β-HSD type 1, 2 nM tritium labeled estrone; for inhibition at 1 µM: 1 μM test compound, read-out: % Inhibition HSD1 1 μM; for inhibition at 10 µM: 10 μM test compound, read-out: % Inhibition HSD1 10 μM
T1 construct: expressed in transfected cells; host or cells: MCF-7
T1 sequence (P14061 1-328): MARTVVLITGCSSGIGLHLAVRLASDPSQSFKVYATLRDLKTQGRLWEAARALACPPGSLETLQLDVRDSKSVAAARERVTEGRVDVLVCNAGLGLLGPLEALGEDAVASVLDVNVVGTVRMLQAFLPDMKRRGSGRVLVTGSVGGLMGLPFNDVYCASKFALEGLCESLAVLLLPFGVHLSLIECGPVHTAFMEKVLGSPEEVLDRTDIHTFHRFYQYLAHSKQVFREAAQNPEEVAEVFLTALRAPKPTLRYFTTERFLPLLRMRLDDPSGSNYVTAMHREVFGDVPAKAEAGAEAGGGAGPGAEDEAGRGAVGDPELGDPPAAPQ
How it was run: (§1)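 Compounds are tested at two concentrations on MCF-7 cells carrying a single 17β-HSD isoenzyme, with 2 nM tritiated estrone, estradiol or androstenedione as type 1, 2 or 3 substrate. Percent inhibition reflects lower conversion relative to a compound-free control.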

[2] = molecular target: T2, 17β-hydroxysteroid dehydrogenase type 3 (17β-HSD type 3) (Homo sapiens, UniProt P37058); test: Inhibition of 17β-HSD type 3 in MCF-7 cells stably expressing the isoenzyme (tritium labeled androstenedione conversion, HPLC); details: MCF7, MCF-7 cells expressing 17β-HSD type 3, 2 nM tritium labeled androstenedione; for inhibition at 1 µM: 1 μM test compound, read-out: % Inhibition HSD3 1 μM; for inhibition at 10 µM: 10 μM test compound, read-out: % Inhibition HSD3 10 μM
T2 construct: expressed in transfected cells; host or cells: MCF-7
T2 sequence (P37058 1-310): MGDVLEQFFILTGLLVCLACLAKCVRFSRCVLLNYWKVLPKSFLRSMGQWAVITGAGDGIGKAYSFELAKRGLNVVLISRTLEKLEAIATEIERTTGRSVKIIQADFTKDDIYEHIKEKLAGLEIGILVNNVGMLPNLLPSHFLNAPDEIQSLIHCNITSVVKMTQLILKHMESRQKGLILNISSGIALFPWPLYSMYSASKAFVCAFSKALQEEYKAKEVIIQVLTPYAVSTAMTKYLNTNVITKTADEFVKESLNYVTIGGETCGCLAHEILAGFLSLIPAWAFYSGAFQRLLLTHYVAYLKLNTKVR
How it was run: as §1

[3] = molecular target: T3, 17β-hydroxysteroid dehydrogenase type 2 (17β-HSD type 2) (Homo sapiens, UniProt P37059); test: Inhibition of 17β-HSD type 2 in MCF-7 cells stably expressing the isoenzyme (tritium labeled estradiol conversion, HPLC); details: MCF7, MCF-7 cells expressing 17β-HSD type 2, 2 nM tritium labeled estradiol; for inhibition at 1 µM: 1 μM test compound, read-out: % Inhibition HSD2 1 μM; for inhibition at 10 µM: 10 μM test compound, read-out: % Inhibition HSD2 10 μM
T3 construct: expressed in transfected cells; host or cells: MCF-7
T3 sequence (P37059 1-387): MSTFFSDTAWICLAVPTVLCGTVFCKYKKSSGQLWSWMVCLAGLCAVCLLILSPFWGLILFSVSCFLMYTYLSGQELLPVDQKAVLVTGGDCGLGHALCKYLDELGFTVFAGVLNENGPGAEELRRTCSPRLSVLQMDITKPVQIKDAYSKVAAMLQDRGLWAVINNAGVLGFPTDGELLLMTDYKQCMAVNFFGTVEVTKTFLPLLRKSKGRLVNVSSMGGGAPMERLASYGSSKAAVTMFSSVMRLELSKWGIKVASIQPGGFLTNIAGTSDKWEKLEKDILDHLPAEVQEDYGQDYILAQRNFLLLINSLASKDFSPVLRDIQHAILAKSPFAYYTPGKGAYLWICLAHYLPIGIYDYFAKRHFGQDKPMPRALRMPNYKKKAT
How it was run: as §1

Row | inhibition at 1 µM [1] | inhibition at 10 µM [1] | inhibition at 1 µM [2] | inhibition at 10 µM [2] | inhibition at 1 µM [3] | inhibition at 10 µM [3] | Structure (SMILES)
1 | 7.1% | 28.5% | -4.3% | 27.6% | 9.1% | 7.8% | COc1cccc(-c2nc3sc4c(c3c(=O)n2Cc2ccccc2)CCCC4)c1 [No. 78, 3-Benzyl-2-(m-methoxyphenyl)-5,6,7,8-tetrahydro-3H-benzo[4,5]thieno[2,3-d]pyrimidin-4-one]
2 | 26.6% | 39.1% | 21.9% | 59.7% | 34.4% | 31.6% | COc1cccc(-c2nc3sc4c(c3c(=O)n2Cc2ccccc2)CCCC4=O)c1 [No. 79, 3-Benzyl-2-(m-methoxyphenyl)-6,7-dihydro-3H,5H-benzo[4,5]thieno[2,3-d]pyrimidine-4,8-dione]
3 | 37% | 39.3% | 22.7% | 35.4% | 47.3% | 51% | COc1cccc(-c2nc3sc4c(c3c(=O)n2Cc2ccccc2)CCC(Br)C4=O)c1 (stereo not drawn) [No. 80, 3-Benzyl-7-bromo-2-(m-methoxyphenyl)-6,7-dihydro-3H,5H-benzo[4,5]thieno[2,3-d]pyrimidine-4,8-dione]
4 | 33.1% | 16.8% | 7.8% | 26.2% | 32.1% | 35.6% | COc1cccc(-c2nc3sc4c(c3c(=O)n2Cc2ccccc2)CCC(Br)(Br)C4=O)c1 [No. 81, 3-Benzyl-7,7-dibromo-2-(m-methoxyphenyl)-6,7-dihydro-3H,5H-benzo[4,5]thieno[2,3-d]pyrimidine-4,8-dione]
5 | 25.4% | 26.3% | 13.5% | 21% | 26.1% | 60.1% | COc1cccc(-c2nc3sc4c(O)cccc4c3c(=O)n2Cc2ccccc2)c1 [No. 83, 3-Benzyl-8-hydroxy-2-(m-methoxyphenyl)-3H-benzo[4,5]thieno[2,3-d]pyrimidin-4-one]
6 | 10.2% | 22.6% | 4% | 33.5% | 26.4% | 63.6% | COc1cccc(-c2nc3sc4c(OC(C)=O)cccc4c3c(=O)n2Cc2ccccc2)c1 [No. 84, Acetic acid 3-benzyl-4-oxo-2-(m-methoxyphenyl)-3,4-dihydro-benzo[4,5]thieno[2,3-d]pyrimidin-8-yl ester]
7 | 24.1% | 40.1% | -2.2% | 24.4% | 21.5% | 25.4% | CCCCn1c(-c2cc(OC)c(OC)c(OC)c2)nc2sc3c(c2c1=O)CCCC3 [No. 85, 3-Butyl-2-(3,4,5-trimethoxyphenyl)-5,6,7,8-tetrahydro-3H-benzo[4,5]thieno[2,3-d]pyrimidin-4-one]
8 | 23.6% | 46.6% | 11.3% | 45.7% | 18.9% | 19.5% | CCCCn1c(-c2cc(OC)c(OC)c(OC)c2)nc2sc3c(c2c1=O)CCCC3=O [No. 86, 3-Butyl-2-(3,4,5-trimethoxyphenyl)-6,7-dihydro-3H,5H-benzo[4,5]thieno[2,3-d]pyrimidine-4,8-dione]
9 | 26.8% | 67.4% | 13% | 31.9% | 24.6% | 23.4% | CCCCn1c(-c2cc(OC)c(OC)c(OC)c2)nc2sc3c(c2c1=O)CCC(Br)C3=O (stereo not drawn) [No. 87, 7-Bromo-3-butyl-2-(3,4,5-trimethoxyphenyl)-6,7-dihydro-3H,5H-benzo[4,5]thieno[2,3-d]pyrimidine-4,8-dione]
